In article PMC8019204 (Cancer Science, 2021):

Assay: GEOMETRY mono-1: safety
Type: in vivo, human

CNC(=O)c1ccc(-c2cnc3ncc(Cc4ccc5ncccc5c4)n3n2)cc1F [capmatinib, Capmatinib]
Treatment‐related AE: Nausea (45 Japanese patients): 35.6% | Treatment‐related AE: Oedema peripheral (45 Japanese patients): 31.1% | Treatment‐related AE: blood creatinine increased (45 Japanese patients): 53.3% | Capmatinib interrupted due to AEs (METΔex14 1L group (n = 2)): both | Discontinuation from treatment phase, reason: Adverse event (METΔex14 1L group (n = 2)): 1 (50.0) n (%) of patients | Capmatinib interrupted due to AEs (METΔex14 2/3L group (n = 11)): 10 patients | Discontinuation from treatment phase, reason: Adverse event (METΔex14 2/3L group (n = 11)): 3 (27.3) n (%) of patients | Dose reductions due to AEs (METΔex14 2/3L group (n = 11)): eight | AEs leading to permanent discontinuation (all patients (n = 45)): 8 (17.8) n (%) of patients | AEs requiring dose adjustment/interruption (all patients (n = 45)): 30 (66.7) n (%) of patients | Any AE (all patients (n = 45)): 45 (100.0) n (%) of patients | Any grade 3/4 AE (all patients (n = 45)): 33 (73.3) n (%) of patients | Any grade 3/4 serious AE (all patients (n = 45)): 18 (40.0) n (%) of patients | Any serious AE (all patients (n = 45)): 22 (48.9) n (%) of patients | Any treatment‐related grade 3/4 serious AE (all patients (n = 45)): 9 (20.0) n (%) of patients | Any treatment‐related serious AE (all patients (n = 45)): 12 (26.7) n (%) of patients | Grade 3/4 AEs leading to permanent discontinuation (all patients (n = 45)): 4 (8.9) n (%) of patients | Grade 3/4 AEs requiring dose adjustment/interruption (all patients (n = 45)): 22 (48.9) n (%) of patients | Any grade 3/4 treatment‐related AE (all patients (n = 45), Table 4): 25 (55.6) n (%) of patients | Any treatment‐related AE (all patients (n = 45), Table 4): 44 (97.8) n (%) of patients | Deaths (all patients (n = 45), considered related to NSCLC): 1 (2.2) n (%) of patients | Treatment‐related AE (investigations): ALT increased (any grade, n = 45): 6 (13.3) n (%) of patients | Treatment‐related AE (investigations): AST increased (any grade, n = 45): 6 (13.3) n (%) of patients | Treatment‐related AE (investigations): Amylase increased (any grade, n = 45): 8 (17.8) n (%) of patients | Treatment‐related AE (investigations): Blood ALP increased (any grade, n = 45): 4 (8.9) n (%) of patients | Treatment‐related AE (investigations): Blood creatinine increased (any grade, n = 45): 24 (53.3) n (%) of patients | Treatment‐related AE (investigations): Lipase increased (any grade, n = 45): 6 (13.3) n (%) of patients | Treatment‐related AE (investigations): Neutrophil count decreased (any grade, n = 45): 5 (11.1) n (%) of patients | Treatment‐related AE (investigations): Platelet count decreased (any grade, n = 45): 8 (17.8) n (%) of patients | Treatment‐related AE (investigations): WBC count decreased (any grade, n = 45): 4 (8.9) n (%) of patients | Treatment‐related AE (investigations): γGT increased (any grade, n = 45): 3 (6.7) n (%) of patients | Treatment‐related AE: Anaemia (any grade, n = 45): 3 (6.7) n (%) of patients | Treatment‐related AE: Cellulitis (any grade, n = 45): 3 (6.7) n (%) of patients | Treatment‐related AE: Constipation (any grade, n = 45): 5 (11.1) n (%) of patients | Treatment‐related AE: Decreased appetite (any grade, n = 45): 10 (22.2) n (%) of patients | Treatment‐related AE: Diarrhoea (any grade, n = 45): 8 (17.8) n (%) of patients | Treatment‐related AE: Dry skin (any grade, n = 45): 4 (8.9) n (%) of patients | Treatment‐related AE: Fatigue (any grade, n = 45): 4 (8.9) n (%) of patients | Treatment‐related AE: Headache (any grade, n = 45): 3 (6.7) n (%) of patients | Treatment‐related AE: Hypoalbuminaemia (any grade, n = 45): 4 (8.9) n (%) of patients | Treatment‐related AE: Malaise (any grade, n = 45): 3 (6.7) n (%) of patients | Treatment‐related AE: Nausea (any grade, n = 45): 16 (35.6) n (%) of patients | Treatment‐related AE: Oedema peripheral (any grade, n = 45): 14 (31.1) n (%) of patients | Treatment‐related AE: Pyrexia (any grade, n = 45): 7 (15.6) n (%) of patients | Treatment‐related AE: Rash (any grade, n = 45): 5 (11.1) n (%) of patients | Treatment‐related AE: Vomiting (any grade, n = 45): 12 (26.7) n (%) of patients | Any treatment‐related AE (any grade, n = 45, Table 5): 44 (97.8) n (%) of patients | Treatment‐related AE (investigations): ALT increased (grade 3/4, n = 45): 2 (4.4) n (%) of patients | Treatment‐related AE (investigations): AST increased (grade 3/4, n = 45): 2 (4.4) n (%) of patients | Treatment‐related AE (investigations): Amylase increased (grade 3/4, n = 45): 2 (4.4) n (%) of patients | Treatment‐related AE (investigations): Blood ALP increased (grade 3/4, n = 45): 0 n (%) of patients | Treatment‐related AE (investigations): Blood creatinine increased (grade 3/4, n = 45): 0 n (%) of patients | Treatment‐related AE (investigations): Lipase increased (grade 3/4, n = 45): 3 (6.7) n (%) of patients | Treatment‐related AE (investigations): Neutrophil count decreased (grade 3/4, n = 45): 3 (6.7) n (%) of patients | Treatment‐related AE (investigations): Platelet count decreased (grade 3/4, n = 45): 2 (4.4) n (%) of patients | Treatment‐related AE (investigations): WBC count decreased (grade 3/4, n = 45): 1 (2.2) n (%) of patients | Treatment‐related AE (investigations): γGT increased (grade 3/4, n = 45): 1 (2.2) n (%) of patients | Treatment‐related AE: Anaemia (grade 3/4, n = 45): 1 (2.2) n (%) of patients | Treatment‐related AE: Cellulitis (grade 3/4, n = 45): 1 (2.2) n (%) of patients | Treatment‐related AE: Constipation (grade 3/4, n = 45): 1 (2.2) n (%) of patients | Treatment‐related AE: Decreased appetite (grade 3/4, n = 45): 2 (4.4) n (%) of patients | Treatment‐related AE: Diarrhoea (grade 3/4, n = 45): 1 (2.2) n (%) of patients | Treatment‐related AE: Dry skin (grade 3/4, n = 45): 0 n (%) of patients | Treatment‐related AE: Fatigue (grade 3/4, n = 45): 0 n (%) of patients
